Experimental data published in US7820646B2, “Cyclized derivatives as Eg-5 inhibitors” (Novartis Vaccines and Diagnostics, Inc., priority 2007, dated 2010).

How the values were obtained:
[1] = test system: KB8.5 (KB85 - p-glycoprotein associated multi-drug resistant cell line); assay: Inhibition of cellular proliferation in tumor cell lines (CellTiter Glo), KB8.5; assay type: cell-based; conditions: KB8.5, 72 hours of continuous compound exposure; read-out: Cell Base Activity GI50 KB8.5
Description: (§1) Cells are plated in 96-well plates at densities of about 500 cells per well of a 96-well plate and are allowed to grow for 24 hours. The cells are then treated with various concentrations of compounds for 72 hours. Then, 100 μl of CellTiter Glo is added. CellTiter Glo is a tetrazolium-based assay using the reagent 3-(4,5-dimethylthiazol-2-yl) 5-(3-carboxymethoxyphenyl)-2-(4-sulfophenyl)-2H-tetrazolium (MTS) (U.S. Pat. No. 5,185,450) (see Promega product catalog #G3580, CellTiter 96 Aqueous One Solution Cell Proliferation Assay). The cells are then incubated in the dark for 30 minutes. The amount of luminescence is determined for each well using a Walloc Trilux plate reader, which correlates with the number of cells per well. The number of viable cells in the wells that receive only DMSO (0.5%) serve as an indication of 0% inhibition, while wells without cells serve as 100% inhibition of cell growth. The compound concentration that results in a 50% growth inhibition (GI50) is determined graphically from sigmoidal dose-response curves of log-transformed dose values versus cell counts (percent of control) at 72 hours of continuous compound exposure.
(§2) The cell lines used are listed below.
(§3) The cell proliferation assay is performed as described above.

[2] = target: T1, motor domain of human KSP (Eg 5, KNSL1) (Homo sapiens, UniProt P52732); assay: Assay for determining KSP activity (microtubule-stimulated ATPase, Biomol Green); conditions: KSP motor domain 45 nM, microtubules 35 μg/mL, 1 hour at RT; read-out: Biochemical Activity IC50
T1 construct: KSP motor protein (i.e., the KSP motor domain); made in house
T1 sequence (P52732 18-359 limits assumed): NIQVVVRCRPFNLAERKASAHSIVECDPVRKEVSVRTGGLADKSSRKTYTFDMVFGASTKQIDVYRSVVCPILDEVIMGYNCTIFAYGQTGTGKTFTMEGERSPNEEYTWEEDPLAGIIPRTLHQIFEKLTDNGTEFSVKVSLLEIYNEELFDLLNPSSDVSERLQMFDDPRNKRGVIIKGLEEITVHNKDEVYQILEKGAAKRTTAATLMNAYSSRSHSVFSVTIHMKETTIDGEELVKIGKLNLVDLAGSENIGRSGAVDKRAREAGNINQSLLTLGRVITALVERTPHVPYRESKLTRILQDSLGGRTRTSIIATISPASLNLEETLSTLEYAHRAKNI
Source text: This example provides a representative in vitro assay for determining KSP activity in vitro. Purified microtubules obtained from bovine brain were purchased from Cytoskeleton Inc. (Denver, Colo., USA). The motor domain of human KSP (Eg 5, KNSL1) was cloned, expressed, and purified to greater than 95% homogeneity. Biomol Green was purchased from Affinity Research Products Ltd. (Matford Court, Exeter, Devon, United Kingdom). Microtubules and KSP motor protein (i.e., the KSP motor domain) were diluted in assay buffer (20 mM Tris-HCl (pH 7.5), 1 mM MgCl2, 10 mM DTT and 0.25 mg/mL BSA) to a final concentration of 35 μg/mL microtubules and 45 nM KSP. The microtubule/KSP mixture was then pre-incubated at 37° C. for 10 min to promote the binding of KSP to microtubules.
To each well of the testing plate (384-well plate) containing 1.25 μL of inhibitor or test compound in DMSO (or DMSO only in the case of controls) were added 25 μL of ATP solution (ATP diluted to a concentration of 300 μM in assay buffer) and 25 μL of the above-described microtubule/KSP solution. The plates were incubated at RT for 1 hour. Following incubation, 65 μL of Biomol Green (a malachite green-based dye that detects the release of inorganic phosphate) was added to each well. The plates were incubated for an additional 5-10 minutes then the absorbance at 630 nm was determined using a Victor II plate reader. The amount of absorbance at 630 nm corresponded to the amount of KSP activity in the samples. The IC50 of each inhibitor or test compound was then determined based on the decrease in absorbance at 630 nm at each concentration, via nonlinear regression using either XLFit for Excel or Prism data analysis software by GraphPad Software Inc.

[3] = test system: parental cell line; assay: Inhibition of cellular proliferation in tumor cell lines (CellTiter Glo), KB3.1; assay type: cell-based; conditions: Homo sapiens, KB 3-1; KB3.1, 72 hours of continuous compound exposure; read-out: Cell Base Activity GI50 KB3.1
Description: as §1, §2, §3

[4] = test system: HCT-15 colon carcinoma; assay: Inhibition of cellular proliferation in tumor cell lines (CellTiter Glo), HCT-15; assay type: cell-based; conditions: Homo sapiens; HCT-15, 72 hours of continuous compound exposure; read-out: Cell Base Activity GI50 HCT-15
Description: as §1, §2, §3

[5] = test system: HCT-116 colon carcinoma; assay: Inhibition of cellular proliferation in tumor cell lines (CellTiter Glo), HCT-116; assay type: cell-based; conditions: Homo sapiens; HCT-116, 72 hours of continuous compound exposure; read-out: Cell Base Activity GI50 HCT-116
Description: as §1, §2, §3

SMILES: C[C@@H]1O[C@H](CN)CN([C@@H](c2nc(-c3cccc(F)c3)cn2Cc2ccccc2)C(C)(C)C)C1=O [Compound 14, (2S,6R)-6-(aminomethyl)-4-{(1R)-1-[1-benzyl-4-(3-fluorophenyl)-1H-imidazol-2-yl]-2,2-dimethylpropyl}-2-methylmorpholin-3-one]
- GI50 [1]: > 1000 nM
- IC50 [2]: > 1000 nM
- GI50 [3]: > 1000 nM
- GI50 [4]: > 1000 nM
- GI50 [5]: > 1000 nM

SMILES: C[C@H]1O[C@H](CN)CN([C@@H](c2nc(-c3cccc(F)c3)cn2Cc2ccccc2)C(C)(C)C)C1=O [Compound 15, (2R,6R)-6-(aminomethyl)-4-{(1R)-1-[1-benzyl-4-(3-fluorophenyl)-1H-imidazol-2-yl]-2,2-dimethylpropyl}-2-methylmorpholin-3-one]
- GI50 [1]: > 1000 nM
- IC50 [2]: 100 to 1000 nM
- GI50 [3]: > 1000 nM
- GI50 [4]: > 1000 nM
- GI50 [5]: > 1000 nM

SMILES: CC(C)(C)[C@H](c1nc(-c2ccccc2)cn1Cc1ccccc1)N1C[C@@H](CN)NC(=O)C1=O [Compound 16, (5R)-5-(aminomethyl)-1-[(1R)-1-(1-benzyl-4-phenyl-1H-imidazol-2-yl)-2,2-dimethylpropyl]piperazine-2,3-dione]
- GI50 [1]: > 1000 nM
- IC50 [2]: ≤ 100 nM
- GI50 [3]: 100 to 1000 nM
- GI50 [4]: > 1000 nM
- GI50 [5]: 100 to 1000 nM

SMILES: CC(C)(C)[C@H](c1nc(-c2ccccc2)cn1Cc1ccccc1)N1C[C@H](CN)NC(=O)C1=O [Compound 17, (5S)-5-(aminomethyl)-1-[(1R)-1-(1-benzyl-4-phenyl-1H-imidazol-2-yl)-2,2-dimethylpropyl]piperazine-2,3-dione]
- GI50 [1]: > 1000 nM
- IC50 [2]: ≤ 100 nM
- GI50 [3]: > 1000 nM
- GI50 [4]: > 1000 nM
- GI50 [5]: > 1000 nM

SMILES: CN1C(=O)C(=O)N([C@@H](c2nc(-c3ccccc3)cn2Cc2ccccc2)C(C)(C)C)C[C@H]1CN [Compound 18, (5R)-5-(aminomethyl)-1-[(1R)-1-(1-benzyl-4-phenyl-1H-imidazol-2-yl)-2,2-dimethylpropyl]-4-methylpiperazine-2,3-dione]
- GI50 [1]: > 1000 nM
- IC50 [2]: ≤ 100 nM
- GI50 [3]: 100 to 1000 nM
- GI50 [4]: 100 to 1000 nM
- GI50 [5]: 100 to 1000 nM

SMILES: CC(C)(C)[C@H](c1nc(-c2ccccc2)cn1Cc1ccccc1)N1C[C@@H](CN)NCCC1=O [Compound 20, (2R)-2-(aminomethyl)-4-[(1R)-1-(1-benzyl-4-phenyl-1H-imidazol-2-yl)-2,2-dimethylpropyl]-1,4-diazepan-5-one]
- GI50 [1]: > 1000 nM
- IC50 [2]: 100 to 1000 nM
- GI50 [3]: 100 to 1000 nM
- GI50 [4]: > 1000 nM
- GI50 [5]: 100 to 1000 nM

SMILES: CC(C)(C)[C@H](c1nc(-c2ccccc2)cn1Cc1ccccc1)N1C[C@@H](CN)OCCC1=O [Compound 23, (2R)-2-(aminomethyl)-4-[(1R)-1-(1-benzyl-4-phenyl-1H-imidazol-2-yl)-2,2-dimethylpropyl]-1,4-oxazepan-5-one]
- GI50 [1]: 100 to 1000 nM
- IC50 [2]: 100 to 1000 nM
- GI50 [3]: > 1000 nM
- GI50 [4]: > 1000 nM
- GI50 [5]: 100 to 1000 nM

SMILES: CC(C)(C)[C@H](c1nc(-c2ccccc2)cn1Cc1ccccc1)N1C[C@@H](CN)COCC1=O [Compound 25, (6R)-6-(aminomethyl)-4-[(1R)-1-(1-benzyl-4-phenyl-1H-imidazol-2-yl)-2,2-dimethylpropyl]-1,4-oxazepan-3-one]
- GI50 [1]: 100 to 1000 nM
- IC50 [2]: ≤ 100 nM
- GI50 [3]: ≤ 100 nM
- GI50 [4]: 100 to 1000 nM
- GI50 [5]: ≤ 100 nM

SMILES: CC(C)(C)[C@H](c1nc(-c2cccc(F)c2)cn1Cc1ccccc1)N1C[C@@H](CN)COCC1=O [Compound 27, (6R)-6-(aminomethyl)-4-{(1R)-1-[1-benzyl-4-(3-fluorophenyl)-1H-imidazol-2-yl]-2,2-dimethylpropyl}-1,4-oxazepan-3-one]
- GI50 [1]: ≤ 100 nM
- IC50 [2]: ≤ 100 nM
- GI50 [3]: ≤ 100 nM
- GI50 [4]: 100 to 1000 nM
- GI50 [5]: ≤ 100 nM

SMILES: CC(C)(C)[C@H](c1nc(-c2cccc(F)c2)cn1Cc1cccc(F)c1)N1C[C@@H](CN)COCC1=O [Compound 28, (6R)-6-(aminomethyl)-4-{(1R)-1-[1-(3-fluorobenzyl)-4-(3-fluorophenyl)-1H-imidazol-2-yl]-2,2-dimethylpropyl}-1,4-oxazepan-3-one]
- GI50 [1]: ≤ 100 nM
- IC50 [2]: ≤ 100 nM
- GI50 [3]: ≤ 100 nM
- GI50 [4]: ≤ 100 nM
- GI50 [5]: ≤ 100 nM

SMILES: CC(C)(C)[C@H](c1nc(-c2cccc(F)c2)cn1Cc1cccc(F)c1)N1C[C@H](CN)COCC1=O [Compound 29, (6S)-6-(aminomethyl)-4-{(1R)-1-[1-(3-fluorobenzyl)-4-(3-fluorophenyl)-1H-imidazol-2-yl]-2,2-dimethylpropyl}-1,4-oxazepan-3-one]
- GI50 [1]: 100 to 1000 nM
- IC50 [2]: ≤ 100 nM
- GI50 [3]: 100 to 1000 nM
- GI50 [4]: 100 to 1000 nM
- GI50 [5]: 100 to 1000 nM
